Experimental data reported in patent US6962906B2, “Oligonucleotide analogues, methods of synthesis and methods of use” (Active Motif, priority 2000, dated 2005).
Values joined by “and” are separate entries in the source; they are usually repeats but may differ in a detail not shown here. Equal values may be shown once.

Key:
Type in all cases: binding
[1] = test system: DNA oligomer 5′-TGGTCTCACGTCAGTG-3′ (SEQ ID NO: 19); experiment: Melting curve analysis, mismatch discrimination in moderate salt, DNA/DNA control; settings: for Tm, ° C. DNA/DNA: 20 millimolar Tris-HCl, pH 7.5, 150 millimolar NaCl, 10 millimolar MgCl2, oligomers 1:1; for ΔTm DNA/DNA: 150 millimolar NaCl, relative to no mismatches
Description: (§1) The sequence of the […] oligomer was: Th-Gp-Gh-Tp-Ch-Tp-Ch-Ap-Ah-Gp-Th-Cp-Ah-Gp-Th-Gp-dT, where the subscript h denotes a “HypNA” monomeric unit and the subscript p denotes a “pPNA” monomeric unit. […] For performing DNA-DNA control hybridizations, a DNA oligomer with a sequence identical to that of the […] oligomer, […]) was also synthesized. To perform the melting curve analysis, the DNA oligomers and […] oligomers were mixed at a 1:1 in a volume of 400 microliters. For nucleic acid hybridization controls, DNA oligomers and complementary (or partially complementary) DNA oligomers, were mixed at a 1:1 ratio in a volume of 400 microliters. The hybridization solutions contained 20 millimolar Tris-HCl, pH 7.5, 150 millimolar NaCl, and 10 millimolar MgCl2. The mixtures of DNA oligomers or DNA oligomers with […] oligomers were then incubated at 90 degrees C. for 3 minutes and allowed to cool gradually to room temperature overnight. […] Changes in the absorbance at 260 nanometers were recorded, and a Tm was calculated for each combination of oligomers. In some cases, there was no discernible Tm, which we interpret to be the result of the inability of particular oligomer pairs to form stable complexes.

[2] = test system: HypNA-pPNA 16-mer; experiment: Melting curve analysis, mismatch discrimination in high salt, PNA/DNA; settings: for Tm, ° C. PNA/DNA: 20 millimolar Tris-HCl, pH 7.5, 500 millimolar NaCl, 10 millimolar MgCl2, oligomers 1:1; for ΔTm PNA/DNA: 500 millimolar NaCl, relative to no mismatches
Description: (§2) The sequence of the […] oligomer was: Th-Gp-Gh-Tp-Ch-Tp-Ch-Ap-Ah-Gp-Th-Cp-Ah-Gp-Th-Gp-. […] For performing DNA-DNA control hybridizations, a DNA oligomer with a sequence identical to that of the […] oligomer was also synthesized. To perform the melting curve analysis, the DNA oligomers and […] oligomers were mixed at a 1:1 ratio in a volume of 400 microliters. For nucleic acid hybridization controls, DNA oligomers and complementary (or nearly complementary) DNA oligomers, were mixed at a 1:1 ratio in a volume of 400 microliters. The hybridization solutions contained 20 millimolar Tris-HCl, pH 7.5, 500 millimolar NaCl, and 10 millimolar MgCl2. The mixtures of DNA oligomers or DNA oligomers with […] oligomers were then incubated at 90 degrees C. for 3 minutes and allowed to cool gradually to room temperature overnight. […] Changes in the absorbance at 260 nanometers were recorded, and a Tm was calculated for each combination of oligomers. In some cases, there was no discernible Tm, which we interpret to be the result of the inability of particular oligomer pairs to form stable complexes.

[3] = test system: HypNA-pPNA 16-mer; experiment: Melting curve analysis, mismatch discrimination in moderate salt, PNA/DNA; settings: for Tm, ° C. PNA/DNA: 20 millimolar Tris-HCl, pH 7.5, 150 millimolar NaCl, 10 millimolar MgCl2, oligomers 1:1, * = Tms not reliable, complex probably unstable; for ΔTm PNA/DNA: 150 millimolar NaCl, relative to no mismatches
Description: as §1

[4] = test system: DNA oligomer with a sequence identical to that of the HypNA-pPNA oligomer; experiment: Melting curve analysis, mismatch discrimination in high salt, DNA/DNA control; settings: for Tm, ° C. DNA/DNA: 20 millimolar Tris-HCl, pH 7.5, 500 millimolar NaCl, 10 millimolar MgCl2, oligomers 1:1; for ΔTm DNA/DNA: 500 millimolar NaCl, relative to no mismatches
Description: as §2

[5] = test system: Oligonucleotide probes labeled with ^32P (DNA probe); experiment: Hybridization of support-bound polyacrylamide-oligomer co-polymers to labeled oligonucleotide probes; effect of single-base mismatches; settings: 0.1 M NaCl, 10 mM sodium phosphate (pH 7), 5 mM EDTA, 10 mM MgCl2, 0.1% sodium dodecyl sulfate
[6] = test system: 16 mer poly A DNA; experiment: Melting curve analysis of poly T probes hybridized to poly A DNA; settings: 20 mM Tris, pH 7.5, 100 mM NaCl, 10 mM MgCl2; DNA to PNA oligomer 1:2 for PNA analogues
Description: (§3) In this experiment we compared hybridized complexes of DNA/DNA, DNA/PNAs, RNA/DNA and PNA/PNAs, for the stability of the complex formed. Poly A DNA oligomers, poly T DNA oligomers, poly A RNA oligomers, and poly T RNA oligomers were synthesized by solid phase synthesis. PNA oligonucleotide analogues were synthesized by solid phase synthesis using methods disclosed herein. The classical PNA Poly T oligomer consisted of a PNA having a N-(2-aminoethyl)glycine backbone. […] The 1:2 Poly T PNA consisted of: biotin-linker-(HypNA-pPNA-pPNA)5-dT. The 1:3 Poly T PNA consisted of: biotin-linker-[(HypNA-pPNA)-(pPNA-pPNA)]4-dT.
(§4) To hybridize DNA/DNA and DNA/RNA oligomers, equal amounts of oligonucleotide were mixed in 20 mM Tris, pH 7.5, 100 mM NaCl, 10 mM MgCl2, incubated at 90° C. for 3 minutes and left to cool gradually to room temperature overnight. Samples were then heated at a rate of 1° C. per minute from 20° C. to 100° C., using a spectrophotometer linked to a thermal control unit. Changes in A260 were recorded and a Tm value was calculated for each complex.
(§5) To hybridize PNA oligonucleotide analogues to DNA and RNA oligomers, the ratio of DNA (or RNA) oligomer to PNA oligomer was 1:2. This 1:2 ratio was used to promote the formation of a triplex structure, with 2 PNA oligomers binding to each DNA oligomer.
(§6) These samples were hybridized and treated in a identical manner to the DNA/DNA and DNA/RNA complexes to obtain Tm values.

[7] = test system: 16 mer poly A RNA; experiment: Melting curve analysis of poly T probes hybridized to poly A RNA; settings: 20 mM Tris, pH 7.5, 100 mM NaCl, 10 mM MgCl2; RNA to PNA oligomer 1:2 for PNA analogues
Description: as §3, §4, §5, §6

| Substance | Tm, ° C. DNA/DNA [1] | ΔTm DNA/DNA [1] | Tm, ° C. PNA/DNA [2] | ΔTm PNA/DNA [3] | Tm, ° C. DNA/DNA [4] | also measured |
| --- | --- | --- | --- | --- | --- | --- |
| 5′-CAC GGA GTT GAG ACC A -3′ (SEQ ID NO: 32) (DNA CACGGAGTTGAGACCA; DNA, backbone not given here) [Mismatch M, DNA oligomer with mismatches to the HypNA-pPNA 16-mer] | 50.2 °C and 45.2 °C | 11.5 °C and 16.4 °C | – | – | – | – |
| 5′-CAC TGA ATT GAG ACC A -3′ (SEQ ID NO: 30) (DNA CACTGAATTGAGACCA; DNA, backbone not given here) [Mismatch J, DNA oligomer with mismatch to the HypNA-pPNA 16-mer] | 52.3 °C and 52.5 °C | 9.3 °C and 9.2 °C | – | – | – | – |
| 5′-CAC TGA CAT GAG ACC A -3′ (SEQ ID NO: 28) (DNA CACTGACATGAGACCA; DNA, backbone not given here) [Mismatch H, DNA oligomer with mismatch to the HypNA-pPNA 16-mer] | 50.0 °C and 53.4 °C | 11.6 °C and 8.3 °C | 41.3 °C and 43.5 °C | 5.5 °C and 6.1 °C | 55.1 °C and 53.3 °C | ΔTm PNA/DNA [2]: 17 °C and 15 °C; Tm, ° C. PNA/DNA [3]: 52.7 °C and 51.8 °C; ΔTm DNA/DNA [4]: 9 °C and 11 °C |
| 5′-CAC TGA CGT GAG ACC A -3′ (SEQ ID NO: 26) (DNA CACTGACGTGAGACCA; DNA, backbone not given here) [Mismatch F, DNA oligomer with mismatch to the HypNA-pPNA 16-mer] | 52.6 °C and 55.6 °C | 9 °C and 6.1 °C | No Tm | 14.5 °C and 14.2 °C | 53.9 °C and 55.3 °C | Tm, ° C. PNA/DNA [3]: 43.7 °C; ΔTm DNA/DNA [4]: 10 °C and 9 °C |
| 5′-CAC TGA CTG GAG ACC A -3′ (SEQ ID NO: 27) (DNA CACTGACTGGAGACCA; DNA, backbone not given here) [Mismatch G, DNA oligomer with mismatch to the HypNA-pPNA 16-mer] | 52.2 °C and 52.6 °C | 9.4 °C and 9.1 °C | No Tm | – | 56.2 °C and 56.1 °C | ΔTm DNA/DNA [4]: 8 °C |
| 5′-CAC TGA CTT GAG ACC A -3′ (SEQ ID NO: 20) [No mismatches] | 61.7 °C and 61.6 °C | – | 59.1 °C and 58.0 °C | – | 63.8 °C and 64.5 °C and 64.0 °C | Tm, ° C. PNA/DNA [3]: 57.9 °C and 58.2 °C |
| 5′-CAC TGA CTT GAG ACG A -3′ (SEQ ID NO: 24) (DNA CACTGACTTGAGACGA; DNA, backbone not given here) [Mismatch D, DNA oligomer with mismatch to the HypNA-pPNA 16-mer] | – | – | 54.3 °C and 54.9 °C | – | 60.8 °C and 62.7 °C | ΔTm PNA/DNA [2]: 4 °C and 3 °C |
| 5′-CAC TGA CTT GAG TCC A -3′ (SEQ ID NO: 23) (DNA CACTGACTTGAGTCCA; DNA, backbone not given here) [Mismatch C, DNA oligomer with mismatch to the HypNA-pPNA 16-mer] | 51.6 °C and 53.8 °C | 10 °C and 7.9 °C | – | 9.9 °C and 8.7 °C | – | Tm, ° C. PNA/DNA [3]: 48.3 °C and 49.2 °C |
| 5′-CAC TGA GTG GAG ACC A -3′ (SEQ ID NO: 22) (DNA CACTGAGTGGAGACCA; DNA, backbone not given here) [Mismatch B, DNA oligomer with mismatches to the HypNA-pPNA 16-mer] | 42.6 °C | 19 °C and 18.9 °C | No Tm | – | – | – |
| 5′-CAC TGA GTT CAG ACC A -3′ (SEQ ID NO: 29) (DNA CACTGAGTTCAGACCA; DNA, backbone not given here) [Mismatch K, DNA oligomer with mismatches to the HypNA-pPNA 16-mer] | 33.3 °C and 36.2 °C | 28.3 °C and 25.5 °C | – | 7 °C | – | – |
| 5′-CAC TGA GTT GAG ACC A -3′ (SEQ ID NO: 21) [Mismatch A] | 51.7 °C and 51.8 °C | 9.9 °C | 41.4 °C and 41.1 °C | 13.1 °C and 12.5 °C | – | ΔTm PNA/DNA [2]: 17 °C; Tm, ° C. PNA/DNA [3]: 45.1 °C and 45.4 °C; ΔTm DNA/DNA [4]: 7 °C |
| 5′-CAC TGA GTT GGG ACC A -3′ (SEQ ID NO: 31) (DNA CACTGAGTTGGGACCA; DNA, backbone not given here) [Mismatch L, DNA oligomer with mismatches to the HypNA-pPNA 16-mer] | 47.4 °C and 50.0 °C | 14.2 °C and 11.7 °C | – | 24.3 °C | – | – |
| 5′-CGG TGA CTT GAG ACC A -3′ (SEQ ID NO: 25) (DNA CGGTGACTTGAGACCA; DNA, backbone not given here) [Mismatch E, DNA oligomer with mismatches to the HypNA-pPNA 16-mer] | 52.7 °C and 55.1 °C | 8.9 °C and 6.6 °C | No Tm | – | 56.5 °C and 56.8 °C | ΔTm DNA/DNA [4]: 7 °C |
| 19 (DNA CTGCAAAGGACACCATGA; DNA, backbone not given here) [Oligomer 19] | – | – | – | – | – | Td (degr. C.) [5]: 55 degr. C.; Tm (degr. C.) [5]: 54 degr. C. |
| 20 (DNA CTGCAAAGCACACCATGA; DNA, backbone not given here) [Oligomer 20] | – | – | – | – | – | Td (degr. C.) [5]: 41 degr. C.; Tm (degr. C.) [5]: 40 degr. C. |
| biotin-linker-(HypNA-pPNA)7-dT [1:1 Poly T PNA-analog] | – | – | – | – | – | Target: 16 mer poly A DNA Tm, ° C. [6]: 81.1 °C and 81.9 °C; Target: 16 mer poly A RNA Tm, ° C. [7]: 73.0 °C and 72.7 °C |
| biotin-linker-(HypNA-pPNA-pPNA)5-dT [1:2 Poly T PNA-analog] | – | – | – | – | – | Target: 16 mer poly A DNA Tm, ° C. [6]: 74.4 °C and 74.0 °C; Target: 16 mer poly A RNA Tm, ° C. [7]: 66.1 °C and 66.0 °C |
| biotin-linker-[(HypNA-pPNA)-(pPNA-pPNA)]4-dT [1:3 Poly T PNA-analog] | – | – | – | – | – | Target: 16 mer poly A DNA Tm, ° C. [6]: 60.9 °C and 60.8 °C; Target: 16 mer poly A RNA Tm, ° C. [7]: 48.9 °C and 47.2 °C |
